IC50 data for 22 compounds are collected here from ChEMBL document CHEMBL3120101, “Synthesis, biological evaluation, hydration site thermodynamics, and chemical reactivity analysis of α-keto substituted peptidomimetics for the inhibition of Plasmodium falciparum” (Bioorg Med Chem Lett, 2014).

The test system of test [1] is Plasmodium falciparum. The test is described as follows: Antimicrobial activity against chloroquine-resistant Plasmodium falciparum W2 assessed as growth inhibition. It counts as functional, organism-based.
Test [2] concerns the target T1, Falcipain 2 (Plasmodium falciparum, UniProt Q9N6S8).
T1 sequence (Q9N6S8 whole entry): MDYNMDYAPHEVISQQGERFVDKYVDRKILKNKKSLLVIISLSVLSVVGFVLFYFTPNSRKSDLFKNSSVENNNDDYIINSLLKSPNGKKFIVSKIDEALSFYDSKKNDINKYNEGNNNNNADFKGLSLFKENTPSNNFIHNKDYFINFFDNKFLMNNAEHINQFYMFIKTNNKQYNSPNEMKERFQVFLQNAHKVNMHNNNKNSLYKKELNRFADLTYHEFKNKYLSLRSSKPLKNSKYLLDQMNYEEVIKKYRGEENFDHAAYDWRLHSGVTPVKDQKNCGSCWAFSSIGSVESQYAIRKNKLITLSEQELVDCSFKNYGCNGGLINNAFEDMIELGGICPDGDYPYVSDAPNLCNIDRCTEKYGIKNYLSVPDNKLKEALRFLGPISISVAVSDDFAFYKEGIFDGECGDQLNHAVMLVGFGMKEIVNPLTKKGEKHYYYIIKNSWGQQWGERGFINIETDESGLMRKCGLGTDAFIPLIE
The test is described as follows: Inhibition of Plasmodium falciparum cysteine protease falcipain-2.

Test [3] addresses T2, Cysteine protease falcipain-3 (Plasmodium falciparum, UniProt Q9NAW4).
T2 sequence (Q9NAW4 whole entry): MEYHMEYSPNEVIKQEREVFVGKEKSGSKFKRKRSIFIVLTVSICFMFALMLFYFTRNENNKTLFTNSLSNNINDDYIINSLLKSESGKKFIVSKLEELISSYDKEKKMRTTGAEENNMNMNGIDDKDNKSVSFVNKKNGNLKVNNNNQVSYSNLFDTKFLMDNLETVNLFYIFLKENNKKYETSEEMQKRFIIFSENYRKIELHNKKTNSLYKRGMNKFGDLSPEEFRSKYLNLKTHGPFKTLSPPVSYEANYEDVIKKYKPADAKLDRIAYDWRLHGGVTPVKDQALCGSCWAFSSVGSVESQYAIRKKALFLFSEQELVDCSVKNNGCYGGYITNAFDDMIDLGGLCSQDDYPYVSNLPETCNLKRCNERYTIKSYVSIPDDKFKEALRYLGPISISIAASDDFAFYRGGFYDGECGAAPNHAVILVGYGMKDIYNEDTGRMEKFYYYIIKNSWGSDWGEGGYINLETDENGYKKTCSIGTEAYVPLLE
In words: Inhibition of Plasmodium falciparum cysteine protease falcipain-3.

As to `O=C(CO)[C@H](CCc1ccccc1)NC(=O)[C@@H]1CCCN1C(=O)OCc1ccccc1`, the IC50 in test [1], in test [2] and in test [3] was more than 50 µM throughout.

For the compound `O=C(CSCCCc1ccccc1)[C@H](CCc1ccccc1)NC(=O)[C@@H]1CCCN1C(=O)OCc1ccccc1`, the values for the IC50 in test [1], in test [2] and in test [3] were 13.8 µM, 48.1 µM and more than 50 µM, respectively.

In the case of `CC(=O)SCC(=O)[C@H](CCc1ccccc1)NC(=O)[C@@H]1CCCN1C(=O)OCc1ccccc1`, the IC50 in test [1] is 18.1 µM; in test [2] it was more than 50 µM; in test [3], 36.4 µM.

For the compound `CC(=O)OCC(=O)[C@H](CCc1ccccc1)NC(=O)[C@@H]1COC(C)(C)N1C(=O)OCc1ccccc1`, the IC50 in test [1], in test [2] and in test [3] was more than 50 µM each time.

As for `CC1(C)OC[C@@H](C(=O)N[C@@H](CCc2ccccc2)C(=O)CO)N1C(=O)OCc1ccccc1`, the IC50 in test [1], in test [2] and in test [3] was more than 50 µM each time.

For the compound `O=C(N[C@H]1CCCC[C@H]1C(=O)N[C@@H](CCc1ccccc1)C(=O)CO)OCc1ccccc1`, the IC50 is more than 50 µM in test [1], 5.52 µM in test [2] and 0.54 µM in test [3].

For `O=C(N[C@@H]1CCCC[C@@H]1C(=O)N[C@@H](CCc1ccccc1)C(=O)CO)OCc1ccccc1`, the values for the IC50 in test [1], in test [2] and in test [3] were 47.6 µM, 4.42 µM and 0.91 µM, respectively.

With `O=C(N[C@H]1CC=CC[C@H]1C(=O)N[C@@H](CCc1ccccc1)C(=O)CO)OCc1ccccc1`, the IC50 in test [1] is more than 50 µM; in test [2] it was more than 50 µM; in test [3], 20.2 µM.

With `O=C(N[C@H]1CCC[C@H]1C(=O)N[C@@H](CCc1ccccc1)C(=O)CO)OCc1ccccc1`, the IC50 in test [1] was more than 50 µM; in test [2], more than 50 µM; in test [3] it was 23.9 µM.

`CC(=O)OCC(=O)[C@H](CCc1ccccc1)NC(=O)[C@@H]1Cc2ccccc2CN1C(=O)OCc1ccccc1`: the IC50 in test [1], in test [2] and in test [3] was more than 50 µM each time.

In the case of `O=C(CO)[C@H](CCc1ccccc1)NC(=O)[C@@H]1Cc2ccccc2CN1C(=O)OCc1ccccc1`, the IC50 in test [1], in test [2] and in test [3] was more than 50 µM throughout.

For the compound `O=C1CCC(NC(=O)OCc2ccccc2)(C(=O)N[C@@H](CCc2ccccc2)C(=O)CO)CC1`, the IC50 in test [1] was 23.3 µM; in test [2], more than 50 µM; in test [3], 47.2 µM.

With `CC(=O)OCC(=O)[C@H](CCc1ccccc1)NC(=O)C1(NC(=O)OCc2ccccc2)CCSCC1`, the figures for the IC50 in test [1], in test [2] and in test [3] were more than 50 µM, 33.9 µM and more than 50 µM, respectively.

As to `O=C(NC1(C(=O)N[C@@H](CCc2ccccc2)C(=O)CO)CCSCC1)OCc1ccccc1`, the IC50 is 28.2 µM in test [1], 3.25 µM in test [2] and 8.22 µM in test [3].

For `CC(=O)OCC(=O)[C@H](CCc1ccccc1)NC(=O)[C@H](CCc1ccccc1)NC(=O)OCc1ccccc1`, the IC50 is more than 50 µM in test [1], 29.7 µM in test [2] and more than 50 µM in test [3].

On to `O=C(N[C@@H](CCc1ccccc1)C(=O)N[C@@H](CCc1ccccc1)C(=O)CO)OCc1ccccc1`, for which the values for the IC50 in test [1], in test [2] and in test [3] were 37.2 µM, 30.1 µM and 11.9 µM, respectively.

As for `CC(=O)OCC(=O)[C@H](CCc1ccccc1)NC(=O)C1C2C=CC(C2)C1NC(=O)OCc1ccccc1` (stereo partly specified), the IC50 in test [1], in test [2] and in test [3] was more than 50 µM in each case.

Consider `O=C(NC1C2C=CC(C2)C1C(=O)N[C@@H](CCc1ccccc1)C(=O)CO)OCc1ccccc1` (stereo partly specified), for which the figures for the IC50 in test [1], in test [2] and in test [3] were 47.2 µM, 33.6 µM and 25.4 µM, respectively.

For the compound `O=C(CO)[C@H](CCc1ccccc1)NC(=O)[C@@H]1C[C@@H](O)CN1C(=O)OCc1ccccc1`, the results for the IC50 in test [1], in test [2] and in test [3] were 7.7 µM, 0.08 µM and 0.06 µM, respectively.

For the compound `O=C(CSCCCc1ccccc1)[C@H](CCc1ccccc1)NC(=O)[C@@H]1C[C@@H](O)CN1C(=O)OCc1ccccc1`, the IC50 in test [1] stood at 19.6 µM; in test [2] it was 1.1 µM; in test [3], 0.52 µM.

Turning to `CC(=O)SCC(=O)[C@H](CCc1ccccc1)NC(=O)[C@@H]1C[C@@H](O)CN1C(=O)OCc1ccccc1`, the IC50 was 18.6 µM in test [1], more than 50 µM in test [2] and 3.56 µM in test [3].

Consider `O=C(CN1CCOCC1)[C@H](CCc1ccccc1)NC(=O)[C@@H]1C[C@@H](O)CN1C(=O)OCc1ccccc1`, for which the IC50 was 10.2 µM in test [1], more than 50 µM in test [2] and more than 50 µM in test [3].
